In ChEMBL document CHEMBL1131629, “4-Benzylamino-1-chloro-6-substituted phthalazines: synthesis and inhibitory activity toward phosphodiesterase 5” (J Med Chem, 1998):

Organism: Sus scrofa
Test: Vasorelaxation effect in porcine coronary arteries precontracted with PGF2-alpha
Type: functional

| EC50 [µM] | Compound |
| --- | --- |
| 0.16 | COc1ccc(CNc2nnc(Cl)c3ccc([N+](=O)[O-])cc23)cc1Cl |
| 0.98 | O=C(O)C1CCN(c2nc(NCc3ccc4c(c3)OCO4)c3cc(Cl)ccc3n2)CC1 |
| 0.15 | COc1ccc(CNc2nnc(Cl)c3ccc(C#N)cc23)cc1Cl |
